Consider 6 compounds from ChEMBL document CHEMBL4400539, “Discovery of a Novel Chemotype of Histone Lysine Methyltransferase EHMT1/2 (GLP/G9a) Inhibitors: Rational Design, Synthesis, Biological Evaluation, and Co-crystal Structure” (J Med Chem, 2019).

In data set [1] the target is T1, Histone-lysine N-methyltransferase EHMT2 (Homo sapiens, UniProt Q96KQ7).
T1 sequence (Q96KQ7 whole entry): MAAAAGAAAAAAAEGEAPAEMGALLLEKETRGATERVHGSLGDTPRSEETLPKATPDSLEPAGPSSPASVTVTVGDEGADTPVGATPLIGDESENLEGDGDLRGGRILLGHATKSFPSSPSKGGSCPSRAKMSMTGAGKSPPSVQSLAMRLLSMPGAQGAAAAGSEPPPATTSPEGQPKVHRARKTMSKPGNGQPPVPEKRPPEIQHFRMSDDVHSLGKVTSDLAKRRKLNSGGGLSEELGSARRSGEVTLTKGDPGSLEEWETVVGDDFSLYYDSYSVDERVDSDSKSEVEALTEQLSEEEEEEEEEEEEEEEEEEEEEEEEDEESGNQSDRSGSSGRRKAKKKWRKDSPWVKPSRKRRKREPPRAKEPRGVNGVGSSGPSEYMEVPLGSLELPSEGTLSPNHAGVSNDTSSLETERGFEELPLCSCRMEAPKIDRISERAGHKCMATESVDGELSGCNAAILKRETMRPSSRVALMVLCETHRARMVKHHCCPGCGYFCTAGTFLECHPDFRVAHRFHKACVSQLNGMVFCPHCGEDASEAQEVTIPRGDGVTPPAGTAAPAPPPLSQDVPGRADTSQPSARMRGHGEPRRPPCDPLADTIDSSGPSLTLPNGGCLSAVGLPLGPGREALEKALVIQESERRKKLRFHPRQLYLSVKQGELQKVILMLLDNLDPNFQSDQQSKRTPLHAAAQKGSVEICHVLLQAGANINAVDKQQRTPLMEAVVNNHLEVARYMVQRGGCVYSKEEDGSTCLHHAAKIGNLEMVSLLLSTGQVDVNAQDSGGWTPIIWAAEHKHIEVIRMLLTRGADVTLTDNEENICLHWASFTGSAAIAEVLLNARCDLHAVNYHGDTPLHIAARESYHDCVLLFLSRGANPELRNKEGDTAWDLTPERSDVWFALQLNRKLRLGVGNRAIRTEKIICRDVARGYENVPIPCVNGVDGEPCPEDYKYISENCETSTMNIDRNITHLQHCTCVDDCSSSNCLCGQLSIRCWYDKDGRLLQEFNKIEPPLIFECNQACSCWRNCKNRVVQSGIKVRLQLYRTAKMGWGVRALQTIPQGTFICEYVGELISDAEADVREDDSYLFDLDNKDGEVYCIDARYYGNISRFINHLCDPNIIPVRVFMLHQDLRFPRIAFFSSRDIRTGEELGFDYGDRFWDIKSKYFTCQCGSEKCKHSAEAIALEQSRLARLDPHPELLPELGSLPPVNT
Kind of data set: Inhibition of recombinant human G9a using biotinylated-Histone H3 peptide (1 to 21 residues) after 30 mins in presence of SAM by AlphaLISA assay.

Data set [2] can be described thus: Apparent permeability of the compound after 24 hrs by PAMPA. The class given is ADME.
Data set [3] can be described thus: Apparent permeability of the compound after 24 hrs by BBB-PAMPA. It counts as ADME.
A short description of data set [4]: Metabolic stability in human liver microsomes assessed as parent compound turn over percentage at 1 mM preincubated for 5 mins followed by NADPH addition and measured for 60 mins by UHPLC analysis. The class given is ADME, Microsome. To be noted: read-out: Drug metabolism.
Data set [5] has as its target T1, Histone-lysine N-methyltransferase EHMT2. Kind of data set: Inhibition G9a (unknown origin).

The structures appear in SMILES notation.

With `COc1cc2c(cc1OCCCN1CCCC1)NC(C1CCCCC1)CN=C2NC1CCN(C(C)C)CC1` (stereo not drawn), the IC50 in data set [1] stood at 955 nM. `COc1cc2c(cc1OCCCN1CCCC1)N=C(c1ccccc1)CN=C2NC1CCN(C(C)C)CC1`: the IC50 in data set [1] was 1090 nM. Turning to `COc1cc2c(cc1OCCCN1CCCC1)NC(c1ccccc1)CN=C2NC1CCN(C(C)C)CC1` (stereo not drawn), in data set [1], the IC50 worked out at 2090 nM. Take `COc1cc2c(NC3CCN(C(C)C)CC3)nc(C3CCCCC3)nc2cc1OCCCN1CCCC1`: the Papp in data set [2] worked out at 0.49 ×10⁻⁷ cm/s; in data set [3], 0.19 ×10⁻⁷ cm/s. Further, the metabolised at 1 h in data set [4] is 2.93%. Take `COc1cc2c(cc1OCCCN1CCCC1)N=C(C1CCCCC1)CC(NC1CCN(C(C)C)CC1)=N2`: the IC50 in data set [1] worked out at 2980 nM. In data set [5], `COc1cc2c(NC3CCN(CCCCCN)CC3)nc(NCCCN(C)C)nc2cc1OCCCCCN` yielded a half-maximal inhibitory concentration (IC50) of 160 nM.
